# In patent US4983620A, “Pharmacologically active alkylthiobenzimidazole derivatives and process for the preparation thereof” (Dompe Farmaceutici S.p.A., priority 1988, dated 1991):
# Counter-ions that a name gives are not always drawn.
# Assays:
# [1] = tested on: mortality induced by compound 48/80; experiment: Effect on the mortality induced by compound 48/80; format: in vivo, Sprague Dawley Nos male rats; conditions: Rattus norvegicus, ip, 4 h; i.p., 30 minutes before 2 mg/kg i.v. compound 48/80; rats; read-out: Compound 48/80 mortality ID50
# Experimental: The tests were carried out according to the method described by C. J. E. Niemergeers et al., Arch. Int. Pharmacodyn., 234,164,-1978. Sprague Dawley Nos male rats (Nossan, Correzzana, Milano) weighing 140-150 g, divided into groups of 10 animals each, on an empty stomach for 24 hrs and with water ad libitum, were kept in cages with a grid floor, then treated intravenously with 2 mg/kg of compound 48/80 (1 ml/rat). The compound (I) or the carrier were dissolved in water (5 ml/kg) and intraperitoneally administered to the animals 30 minutes before the treatment with the compound 48/80. The mortality occurred in the group of treated animals during the first 4 hours following the treatment was noted down. The results were expressed as the number of animals dead with respect to the number of treated animals.
# The experimental data were submitted to the variance analysis and to the subsequent multiple comparisons according to Dunnett (D. J. Finney, "Statistical Method in Biological Assay", Ed. L. Griffin and Co., Ltd., pg. 152-157, Edition Ames, Iowa, 1971).
# [2] = Effect on the sleeping time; format: in vivo; conditions: 25 mg/kg i.p.
# [3] = tested on: mortality induced by histamine; experiment: Effect on the mortality induced by histamine; format: in vivo, male albino guinea pigs (Dunkin-Hartley); conditions: Cavia porcellus, ip, 30 minutes before 1.25 mg/kg i.v. histamine dihydrochloride; guinea pigs; read-out: Histamine mortality ID50
# Experimental: The method described by Romer D. et al., (Med. Welt 17, 791, 1966) was followed and the tests were carried out on male albino guinea pigs (Dunkin-Hartley), weighing 350-450 g, which were kept in cages with a grid floor, on an empty stomach for 24 hrs and with water ad libitum.
# The compounds (I) were dissolved in saline solution and intraperitoneally administered to the animals: 30 minutes later the same animals were intravenously treated with 1.25 mg/kg of histamine dihydrochloride in saline solution.
# It was evaluated ID50 which corresponds to the amount of the compound able to inhibit 50% of the mortality induced by histamine: the estimation of ID50 was carried out by applying the `probit` method (Finney D. J. "Statistical Method in Biological Assay" p. 512, 1957).
# [4] = Acute toxicity (LD50) on mice; conditions: mouse, in vivo, ip
# Experimental: The Letal Dose50 (LD50) was evaluated on mice using Swiss Nos (Nossan, Correzzana, Milano) mice weighing 18-20 g each. The animals, divided into groups of 10 animals each (5M+5F), were on an empty stomach for 18 hrs, with water ad libitum, and kept in cages with a grid floor. The compounds (I) were dissolved in water or suspended in 0.5% carboxymethylcellulose and intraperitioneally administered to the animals (10 ml/kg). The mortality occurred in the tested animals within the following 6 hours was noted down. At the expiry of the 6th hour, the animals were allowed to eat up to the end of the experimentation which lasted 14 days. During this period all the toxic symptoms and the mortality occurring were noted.
# The animals which died during the test period and those which were sacrificed at the end of the same, underwent autopsy for a macroscopic examination of their main organs. The experimental data were statistically compared with the X^2 method and LD50 was extrapolated by the `probit` method.
# [5] = target: T1, H1 histaminergic receptors (Rattus norvegicus, UniProt P31390); experiment: Affinity towards H1 histaminergic receptors ([3H]Mepyramine displacement, rat brain homogenates); conditions: 2 nM [3H]Mepyramine, 25° C., 15 minutes, pH 7.5, read-out: H1-receptor binding IC50
# T1 construct: in homogenates of rat brain; from tissue; host or cells: rat whole brain homogenate
# T1 sequence (P31390 whole entry): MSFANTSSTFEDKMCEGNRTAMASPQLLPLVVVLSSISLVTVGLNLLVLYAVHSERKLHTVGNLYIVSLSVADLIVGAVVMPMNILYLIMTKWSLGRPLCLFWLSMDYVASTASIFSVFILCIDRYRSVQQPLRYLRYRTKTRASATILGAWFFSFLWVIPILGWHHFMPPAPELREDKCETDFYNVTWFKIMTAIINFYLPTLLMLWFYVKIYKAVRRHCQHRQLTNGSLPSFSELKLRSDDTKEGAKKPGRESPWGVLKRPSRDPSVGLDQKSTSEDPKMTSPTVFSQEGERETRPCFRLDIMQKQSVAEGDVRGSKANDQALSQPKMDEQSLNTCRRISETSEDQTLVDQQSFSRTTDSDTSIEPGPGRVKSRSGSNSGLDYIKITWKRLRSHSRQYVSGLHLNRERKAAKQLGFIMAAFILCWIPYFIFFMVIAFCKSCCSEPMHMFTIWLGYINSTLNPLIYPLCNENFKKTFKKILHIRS
# Experimental: The affinity of the examined compounds towards H1 histaminergic receptors as evaluated by displacement curves which were obtained of different concentrations, against [^3 H]
# The incubation was performed at 25° C. for 15 minutes, in a final volume of 1 ml of […] Na/K phosphate buffer, pH 7.5, in the presence of 2 nM [^3 H] Mepyramina and 1.5 mg of cerebral protein. Aspecific binding was defined as the residual radioactivity bound in the presence of […] Clemastine. The test compounds were dissolved in phosphate buffer or dimethylsulfoxide (DMSO), the final concentration of DMSO was 0.5%. Incubation was terminated by filtration through glass fiber GF/B filters pre-soaked with 0.1% polyethylenimine (PEI). The radioactivity trapped by filters was counted by liquid scintillation.
smiles,measurement,setting,value
"CCOCCn1c(SCCN(C)C)nc2ccccc21 [Example 3, 1-(2-Ethoxyethyl)-2-(2-dimethylaminoethylthio)benzimidazole. 2 HCl]",ED50,[1],0.008 mg/kg
same,Sleeping time % increase,[2],5%
same,ED50,[3],0.0109 mg/kg
same,LD50 at 336 h,[4],> 100 mg/kg
same,IC50,[5],2.4 nM
"CCOCCn1c(SCC(C)N(C)C)nc2ccccc21 (centres unmarked) [Example 5, 1-(2-Ethoxyethyl)-2-(2-dimethylaminoisopropylthio)benzimidazole]",ED50,[1],0.009 mg/kg
same,Sleeping time % increase,[2],10%
same,ED50,[3],0.05 mg/kg
same,LD50 at 336 h,[4],~100 mg/kg
same,IC50,[5],6.1 nM
"CC(C)(C)c1ccc(C(O)CCCN2CCC(C(O)(c3ccccc3)c3ccccc3)CC2)cc1 (centres unmarked) [Terfenadine, reference compound]",ED50,[1],1.99 mg/kg
same,Sleeping time % increase,[2],8%
same,ED50,[3],0.735 mg/kg
same,LD50 at 336 h,[4],> 100 mg/kg
